Legend:
[1] = pKa (pH of midpoint of buffering range) of the product at 20° C.
From the text: (§2) In this application, pKa is used to represent the pH of the midpoint of the buffering range of the particular composition.

BALB/C 3T3 = assay: Effect of buffers on growth of 3T3 cells; format: cell-based, mouse; conditions: for Minimum Cell Population: Control at 70 hrs, HEPES at 50 hrs, Ex 3 at 22 hrs
From the text: (§1) The control was not so modified. […] The medium was changed every other day.

NIL B cells = assay: Effect of buffers on growth of NIL B cells; format: cell-based, hamster; conditions: for Minimum Cell Population: Control at 16 hrs, HEPES at 24 hrs, Ex 3 at 24 hrs
From the text: as §1

SV-NIL cells = assay: Effect of buffers on growth of SV-NIL cells; format: cell-based, hamster; conditions: for Minimum Cell Population: Control at 16 hrs, HEPES at 24 hrs, Ex 3 at 26 hrs
From the text: as §1

[2] = Solubility of double zwitterion on acidification; format: physicochemical; conditions: aqueous reaction solution acidified to pH 1.5 with HCl
[3] = tested on: NIL B, SV-NIL and BALB/C 3T3 cells; assay: Effectiveness as cell and tissue culture buffers, overall comparison on the cell lines tested; conditions: for effectiveness as buffer in promotion of cell growth, compared with HEPES / effectiveness as buffer in promotion of cell growth, compared with NaHCO3:CO2 system (control): selected media, cells tested
Method: The cell lines used in the tests were NIL B, a hamster fibroblast line; SV-NIL, an SV40-virus transformed line derived from NIL B; and BALB/C 3T3, a mouse embryo tissue. The cells were seeded into T-flasks (screw-capped polystyrene flasks) with a 25 cm^2 area. On the control flask (CO2 atmosphere), the cap was kept loose to allow gas circulation while the caps on the experimental culture flasks were screwed on tightly. The medium used in these tests was Eagle's MEM 4X (see pages 108-112 of Paul, Cell and Tissue Culture, 5th Edition, 1975), in an Earle's salt solution (page 95 of same text) modified to contain 2.2 g/l of bicarbonate for the experimental buffers. The control was not so modified. The control flask was incubated at 37° C. in an atmosphere of 5% CO2 in air whereas the other flasks were incubated at 37° C. in an air atmosphere. The medium was changed every other day.
At appointed times, triplicate flasks were harvested using trypsin, and the approximate cell population was determined using a Coulter electronic particle counter.

From the text for physchem: as §2

SMILES | pKa [1] | Time of minimum cell population (BALB/C 3T3) | Number of Cells per cm^2 (BALB/C 3T3; 0 hrs) | Number of Cells per cm^2 (BALB/C 3T3; 12 hrs) | Number of Cells per cm^2 (BALB/C 3T3; 24 hrs) | Number of Cells per cm^2 (BALB/C 3T3; 36 hrs) | Number of Cells per cm^2 (BALB/C 3T3; 48 hrs) | Number of Cells per cm^2 (BALB/C 3T3; 60 hrs) | Number of Cells per cm^2 (BALB/C 3T3; 72 hrs) | Number of Cells per cm^2 (BALB/C 3T3; 84 hrs) | Number of Cells per cm^2 (BALB/C 3T3; 88 hrs) | Minimum Cell Population (BALB/C 3T3) | Time of minimum cell population (NIL B cells) | Number of Cells per cm^2 (NIL B cells; 0 hrs) | Number of Cells per cm^2 (NIL B cells; 90-92 hrs) | Number of Cells per cm^2 (NIL B cells; 12 hrs) | Number of Cells per cm^2 (NIL B cells; 24 hrs) | Number of Cells per cm^2 (NIL B cells; 36 hrs) | Number of Cells per cm^2 (NIL B cells; 48 hrs) | Number of Cells per cm^2 (NIL B cells; 60 hrs) | also measured
O=S(=O)(O)CC(O)CN(CCO)CCO (stereo not drawn) [Example 1, 3-[N-(bis-hydroxyethyl)-amino]-2-hydroxypropyl sulfonic acid] | 7.6 | – | – | – | – | – | – | – | – | – | – | – | – | – | – | – | – | – | – | – | –
O=S(=O)(O)CCN1CCN(CCO)CC1 [HEPES, 4-(2-hydroxyethyl)-1-piperazine-ethanesulfonic acids, reference compound] | – | 50 h | 1000 cells per cm^2 | 640 cells per cm^2 | 400 cells per cm^2 | 300 cells per cm^2 | 230 cells per cm^2 | 280 cells per cm^2 | 380 cells per cm^2 | 760 cells per cm^2 | 1010 cells per cm^2 | about 220 cells per cm^2 | 24 h | 1000 cells per cm^2 | 6700 cells per cm^2 | 680 cells per cm^2 | 460 cells per cm^2 | 700 cells per cm^2 | 1010 cells per cm^2 | 1160 cells per cm^2 | Number of Cells per cm^2 (NIL B cells; 72 hrs): 3000 cells per cm^2; Number of Cells per cm^2 (NIL B cells; 84 hrs): 4800 cells per cm^2; Minimum Cell Population (NIL B cells): about 460 cells per cm^2; Time of minimum cell population (SV-NIL cells): 24 h; Number of Cells per cm^2 (SV-NIL cells; 0 hrs): 1000 cells per cm^2; Number of Cells per cm^2 (SV-NIL cells; 12 hrs): 440 cells per cm^2; Number of Cells per cm^2 (SV-NIL cells; 24 hrs): 200 cells per cm^2; Number of Cells per cm^2 (SV-NIL cells; 36 hrs): 230 cells per cm^2; Number of Cells per cm^2 (SV-NIL cells; 48 hrs): 260 cells per cm^2; Number of Cells per cm^2 (SV-NIL cells; 60 hrs): 380 cells per cm^2; Number of Cells per cm^2 (SV-NIL cells; 72 hrs): 580 cells per cm^2; Number of Cells per cm^2 (SV-NIL cells; 84 hrs): 940 cells per cm^2; Number of Cells per cm^2 (SV-NIL cells; 90 hrs): 1040 cells per cm^2; Minimum Cell Population (SV-NIL cells): about 200 cells per cm^2
O=S(=O)(O)CC(O)CN1CCN(CC(O)CS(=O)(=O)O)CC1 (stereo not drawn) [Example 4, Piperazine-N,N'-2-hydroxypropyl sulfonic acid (dihydrate)] | 7.85 | – | – | – | – | – | – | – | – | – | – | – | – | – | – | – | – | – | – | – | solubility [2]: very insoluble
O=S(=O)(O)CC(O)CN1CCN(CCO)CC1 (stereo not drawn) [Example 3, N-hydroxyethyl piperazine-N'-2 hydroxypropyl sulfonic acid] | – | 22 h | 1000 cells per cm^2 | 520 cells per cm^2 | 280 cells per cm^2 | 310 cells per cm^2 | 330 cells per cm^2 | 360 cells per cm^2 | 450 cells per cm^2 | 805 cells per cm^2 | 1015 cells per cm^2 | about 280 cells per cm^2 | 24 h | 1000 cells per cm^2 | 9400 cells per cm^2 | 740 cells per cm^2 | 550 cells per cm^2 | 900 cells per cm^2 | 1100 cells per cm^2 | 2600 cells per cm^2 | Number of Cells per cm^2 (NIL B cells; 72 hrs): 4300 cells per cm^2; Number of Cells per cm^2 (NIL B cells; 84 hrs): 6600 cells per cm^2; Minimum Cell Population (NIL B cells): about 550 cells per cm^2; effectiveness as buffer in promotion of cell growth, compared with HEPES [3]: as good as, if not better than, the control and the known buffer HEPES; effectiveness as buffer in promotion of cell growth, compared with NaHCO3:CO2 system (control) [3]: as good as, if not better than, the control; cell growth utilizing the product as a buffer ([3]; three cell types, average values): general improvement in cell growth; Time of minimum cell population (SV-NIL cells): 26 h; Number of Cells per cm^2 (SV-NIL cells; 0 hrs): 1000 cells per cm^2; Number of Cells per cm^2 (SV-NIL cells; 12 hrs): 470 cells per cm^2; Number of Cells per cm^2 (SV-NIL cells; 24 hrs): 220 cells per cm^2; Number of Cells per cm^2 (SV-NIL cells; 36 hrs): 290 cells per cm^2; Number of Cells per cm^2 (SV-NIL cells; 48 hrs): 440 cells per cm^2; Number of Cells per cm^2 (SV-NIL cells; 60 hrs): 680 cells per cm^2; Number of Cells per cm^2 (SV-NIL cells; 72 hrs): 1000 cells per cm^2; Number of Cells per cm^2 (SV-NIL cells; 84 hrs): 1120 cells per cm^2; Number of Cells per cm^2 (SV-NIL cells; 90 hrs): 1200 cells per cm^2; Minimum Cell Population (SV-NIL cells): about 200 cells per cm^2
O=S(=O)(O)CC(O)CN1CCOCC1 (stereo not drawn) [Example 6, 3-(N-morpholino)-2-hydroxypropyl sulfonic acid] | – | – | – | – | – | – | – | – | – | – | – | – | – | – | – | – | – | – | – | – | effectiveness as buffer in promotion of cell growth, compared with HEPES [3]: about as good as HEPES; effectiveness as buffer in promotion of cell growth, compared with NaHCO3:CO2 system (control) [3]: not as good as the NaHCO3 :CO2 system
O=S(=O)(O)CC(O)CNC(CO)(CO)CO (stereo not drawn) [Example 2, 3-[N-(tris-hydroxymethyl)methylamino]-2-hydroxypropane sulfonic acid] | – | – | – | – | – | – | – | – | – | – | – | – | – | – | – | – | – | – | – | – | pKa (physchem): 7.7
